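Following 48 hours of exposure in 96-well plates, responses at five concentrations were used to interpolate endpoints linearly. GI50: concentration for 50% inhibition of growth.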 Active and inactive are the calls of the source. No stated cut-off is given here; in the data, active = GI50 up to about 1.1 µM and inactive = higher.
Legend:
Test in all cases: DTP human tumour cell line panel, 48 h
786-0 = system: 786-0
SK-MEL-28 = system: SK-MEL-28
SNB-19 = system: SNB-19
SF-295 = system: SF-295
ACHN = system: ACHN
HCC 2998 = system: HCC 2998
IGROV-1 = system: IGROV-1
A498 = system: A498
HCT-116 = system: HCT-116
HOP-62 = system: HOP-62
M14 = system: M14
CAKI-1 = system: CAKI-1
MDA-N = system: MDA-N
HT-29 = system: HT-29
NCI-H23 = system: NCI-H23
K562 = system: K562
OVCAR-3 = system: OVCAR-3
TK-10 = system: TK-10
HL-60 = system: HL-60

| Compound | GI50 (786-0) | GI50 (SK-MEL-28) | GI50 (SNB-19) | GI50 (SF-295) | GI50 (ACHN) | GI50 (HCC 2998) | GI50 (IGROV-1) | GI50 (A498) | GI50 (HCT-116) | GI50 (HOP-62) | GI50 (M14) | GI50 (CAKI-1) | GI50 (MDA-N) | GI50 (HT-29) | GI50 (NCI-H23) | GI50 (K562) | GI50 (OVCAR-3) | GI50 (TK-10) | GI50 (HL-60) |
| --- | --- | --- | --- | --- | --- | --- | --- | --- | --- | --- | --- | --- | --- | --- | --- | --- | --- | --- | --- |
| Nc1ncnc2c1ncn2CCCCC(=O)O | > 100 µM (inactive) | > 100 µM (inactive) | > 100 µM (inactive) | > 100 µM (inactive) | > 100 µM (inactive) | > 100 µM (inactive) | > 100 µM (inactive) | > 100 µM (inactive) | > 100 µM (inactive) | > 100 µM (inactive) | > 100 µM (inactive) | > 100 µM (inactive) | > 100 µM (inactive) | > 100 µM (inactive) | > 100 µM (inactive) | > 100 µM (inactive) | > 100 µM (inactive) | > 100 µM (inactive) |  |
| CC1(C)CC(=O)C(C(c2cccc(O)c2O)C2C(=O)CC(C)(C)CC2=O)C(=O)C1 | 52.6 µM (inactive) | > 100 µM (inactive) | > 100 µM (inactive) | > 100 µM (inactive) | > 100 µM (inactive) |  | 43.9 µM (inactive) | > 100 µM (inactive) | > 100 µM (inactive) | > 100 µM (inactive) | > 100 µM (inactive) | > 100 µM (inactive) | > 100 µM (inactive) | > 100 µM (inactive) | > 100 µM (inactive) | 92.9 µM (inactive) | 97.7 µM (inactive) | > 100 µM (inactive) | < 0.01 µM (active) |
| O=C(Cc1nc2ccc(C(=O)c3ccccc3)cc2nc1O)C(=O)Nc1ccccc1[N+](=O)[O-] | 80.2 µM (inactive) | 94.8 µM (inactive) |  | 48.6 µM (inactive) | 67.3 µM (inactive) | 37.2 µM (inactive) | 40.8 µM (inactive) | > 100 µM (inactive) | 57 µM (inactive) |  | 92 µM (inactive) | 34.8 µM (inactive) | 39.4 µM (inactive) | 47.1 µM (inactive) | 42.2 µM (inactive) | 30.1 µM (inactive) | > 100 µM (inactive) | 98.9 µM (inactive) | 40.3 µM (inactive) |
| OC1(c2ccc(Cl)cc2)c2ccc(CN3CCCC3)cc2C2=NCCN21 (stereo not drawn) | 15.2 µM (inactive) | 10.7 µM (inactive) | 16.6 µM (inactive) | 14.6 µM (inactive) | 16.7 µM (inactive) |  | 14.5 µM (inactive) | 13.1 µM (inactive) | 14.1 µM (inactive) | 15.6 µM (inactive) | 3.66 µM (inactive) | 16.4 µM (inactive) | 10.8 µM (inactive) | 13.1 µM (inactive) | 16.9 µM (inactive) | 16.1 µM (inactive) | 16.1 µM (inactive) | 4.98 µM (inactive) | 12.6 µM (inactive) |
| O=C(OCC(OC(=O)c1ccccc1)C1CC(C2(O)CCCCC2)C(=O)O1)c1ccccc1 (stereo not drawn) | > 25 µM (inactive) | > 25 µM (inactive) | > 25 µM (inactive) | > 25 µM (inactive) | > 25 µM (inactive) | > 25 µM (inactive) | > 25 µM (inactive) | > 25 µM (inactive) | > 25 µM (inactive) | > 25 µM (inactive) | > 25 µM (inactive) | > 25 µM (inactive) | > 25 µM (inactive) | 14 µM (inactive) | 0.05 µM (active) | 15.9 µM (inactive) | > 25 µM (inactive) | > 25 µM (inactive) |  |
| Cc1c(C)c2c(c(N)c1C#N)C(=O)N(CCc1ccccc1)C2=O | > 100 µM (inactive) | > 100 µM (inactive) | > 100 µM (inactive) | > 100 µM (inactive) | > 100 µM (inactive) | > 100 µM (inactive) | > 100 µM (inactive) | > 100 µM (inactive) | > 100 µM (inactive) |  | > 100 µM (inactive) | > 100 µM (inactive) | > 100 µM (inactive) |  |  | > 100 µM (inactive) | > 100 µM (inactive) | > 100 µM (inactive) | 29.2 µM (inactive) |
| COc1ccccc1C[C@@H]1OC2(C=CC(=O)CC2SC(=O)c2ccccc2)O[C@H]1Cc1ccccc1OC (stereo partly drawn) | 0.275 µM (active) | 1.75 µM (inactive) | 1.91 µM (inactive) | 1.63 µM (inactive) | 1.51 µM (inactive) |  | 1.42 µM (inactive) | 2.46 µM (inactive) | 0.241 µM (active) | 1.35 µM (inactive) | 1.56 µM (inactive) | 1.79 µM (inactive) | 1.51 µM (inactive) | 1.65 µM (inactive) | 2.03 µM (inactive) | 2.51 µM (inactive) | 1.59 µM (inactive) | 1.54 µM (inactive) | 1.16 µM (inactive) |
| COC(=O)[C@@H]1Cc2cc(O)c(O)cc2C2(CCN(C)CC2)O1 | > 10 µM (inactive) | > 10 µM (inactive) | > 10 µM (inactive) | > 10 µM (inactive) | > 10 µM (inactive) | > 10 µM (inactive) | > 10 µM (inactive) | > 10 µM (inactive) | > 10 µM (inactive) | > 10 µM (inactive) | > 10 µM (inactive) | > 10 µM (inactive) | > 10 µM (inactive) | > 10 µM (inactive) | > 10 µM (inactive) |  | > 10 µM (inactive) | > 10 µM (inactive) | > 10 µM (inactive) |
| C=CC(Cl)(CBr)CCC(Br)C(C)(C)Cl (stereo not drawn) | 11.7 µM (inactive) | 17.3 µM (inactive) | 16.7 µM (inactive) | 14.8 µM (inactive) | 16.5 µM (inactive) | 14.8 µM (inactive) | 13 µM (inactive) | 14.1 µM (inactive) | 12.8 µM (inactive) | 16.3 µM (inactive) | 13.6 µM (inactive) |  | 17.7 µM (inactive) | 15.3 µM (inactive) | 17 µM (inactive) | 14.9 µM (inactive) | 17.5 µM (inactive) | 23.2 µM (inactive) | 4.05 µM (inactive) |
| CN(C)CCNC(=O)c1cccc2c(NCCN(C)C)c3ccccc3nc12 | 1.7 µM (inactive) | 13.7 µM (inactive) | 3.24 µM (inactive) | 4.93 µM (inactive) | 1.76 µM (inactive) | 1.91 µM (inactive) | 2.68 µM (inactive) | 1.94 µM (inactive) | 1.48 µM (inactive) | 3.19 µM (inactive) | 7.1 µM (inactive) | 2.69 µM (inactive) | 3.15 µM (inactive) | 1.61 µM (inactive) | 2.33 µM (inactive) | 1.73 µM (inactive) | 2.39 µM (inactive) | 3.24 µM (inactive) |  |
| CC(C)C1OC23CCCCC2C(C#N)(C#N)C1(C#N)C(=N)O3 (stereo not drawn) | 14.2 µM (inactive) | 27.4 µM (inactive) | 34.3 µM (inactive) | 49.9 µM (inactive) | 33.1 µM (inactive) | 13.4 µM (inactive) | > 10 µM (inactive) | 25.3 µM (inactive) | 16 µM (inactive) |  | 12.8 µM (inactive) | 8.34 µM (inactive) | 15.8 µM (inactive) | 14.5 µM (inactive) | 26.1 µM (inactive) | 8.61 µM (inactive) | 22.7 µM (inactive) | 19.9 µM (inactive) | 5.31 µM (inactive) |
| CC1Cc2c(Br)nc(N)nc2NC1=O (stereo not drawn) | > 100 µM (inactive) | > 100 µM (inactive) | > 100 µM (inactive) | > 100 µM (inactive) | > 100 µM (inactive) | > 100 µM (inactive) | > 100 µM (inactive) | > 100 µM (inactive) | > 100 µM (inactive) | > 100 µM (inactive) | > 100 µM (inactive) | > 100 µM (inactive) | > 100 µM (inactive) | > 100 µM (inactive) | > 100 µM (inactive) | > 100 µM (inactive) | > 100 µM (inactive) | > 100 µM (inactive) |  |
| CCOC(=O)[C@H](Cc1ccc(O)cc1)/N=C1/[C@H]2CCC[C@]1(O)[C@@](C)([N+](=O)[O-])C2 | > 100 µM (inactive) | > 100 µM (inactive) | > 100 µM (inactive) | > 100 µM (inactive) | > 100 µM (inactive) | > 100 µM (inactive) | > 100 µM (inactive) | > 100 µM (inactive) | > 100 µM (inactive) |  | > 100 µM (inactive) | > 100 µM (inactive) | > 100 µM (inactive) | > 100 µM (inactive) | > 100 µM (inactive) | > 100 µM (inactive) | > 100 µM (inactive) | > 100 µM (inactive) | > 100 µM (inactive) |
| COc1cc2c(cc1OC)C13CCN4CC5=CCOC6CC(=O)N2C1C6C5CC43O (stereo not drawn) | > 100 µM (inactive) | > 100 µM (inactive) | > 100 µM (inactive) | > 100 µM (inactive) | > 100 µM (inactive) | > 100 µM (inactive) | > 100 µM (inactive) | > 100 µM (inactive) | > 100 µM (inactive) |  | > 100 µM (inactive) | > 100 µM (inactive) | > 100 µM (inactive) | > 100 µM (inactive) | > 100 µM (inactive) | > 100 µM (inactive) | > 100 µM (inactive) | > 100 µM (inactive) | > 100 µM (inactive) |
| O=C1/C(=C2\SCC(=O)N2c2ccccc2)SC(=S)N1c1ccccc1 | 47.6 µM (inactive) | 35.9 µM (inactive) | 50.9 µM (inactive) | 28.1 µM (inactive) | 26.2 µM (inactive) | 28.2 µM (inactive) | 17.1 µM (inactive) | 40.4 µM (inactive) | 46.3 µM (inactive) |  | > 100 µM (inactive) | 21.1 µM (inactive) | 44.2 µM (inactive) | 56.1 µM (inactive) | 72.6 µM (inactive) | 36.1 µM (inactive) | 27.8 µM (inactive) | 28.7 µM (inactive) | 78.5 µM (inactive) |
| CCOC(=O)Nn1c(C)nnc1-c1ccccc1 | > 100 µM (inactive) |  | > 100 µM (inactive) | > 100 µM (inactive) | > 100 µM (inactive) | > 100 µM (inactive) | > 100 µM (inactive) | > 100 µM (inactive) | > 100 µM (inactive) |  | > 100 µM (inactive) | > 100 µM (inactive) | > 100 µM (inactive) | > 100 µM (inactive) | > 100 µM (inactive) | > 100 µM (inactive) | > 100 µM (inactive) | > 100 µM (inactive) |  |

Source: ChEMBL document CHEMBL1201862, “PubChem BioAssay data set” (2004)
